Data published in patent US7554012B2, “Plants and plant cells exhibiting resistance to AMPA, and methods for making the same” (priority 1998, dated 2009).
“And” between values parts separate entries of the source, which are not always exact repeats. Equal entries are not always repeated. Where two headings read alike, the source gives them in different places.

How the values were obtained:
[1] = test system: tobacco lines 33476, 36779, 37235; experiment: [^14C]-glyphosate metabolism in R1 tobacco plants; format: in vivo
Source text: Seed from Ro transformation events were obtained after self crossing in growth chamber conditions. Ro seed were cured and planted to generate R1 progeny. Source leaves of R1 progeny at the five leaf stage were exposed to [^14C]-glyphosate by spotting a 2 microliter sample onto each vein (50 microliters of [^14C]-glyphosate Na+ salt, 517,000 dpm/microgram, 0.42 microgram/microliter mixed with 10 microliters of glycerol). Each leaf received several spots depending on the number of veins on that leaf. Three days later 15 additional 2 microliter spots were applied to each leaf. Two weeks later, five 2 microliter spots were applied to each of two leaves on each plant. These were new leaves and were not the older leaves to which glyphosate was initially applied. Five days after this last application, about 300 milligrams of tissue was sampled from two sink leaves on each plant. The samples from each plant were homogenized in separate 1 ml volumes of deionized water, centrifuged at 9,000 RPM in a microcentrifuge, and the aqueous volumes were collected and stored on ice. Extracts were analyzed by HPLC for the presence of [^14C] labeled metabolites as in Example 2. […] In addition, the lack of a bleaching effect in line 36779 after exposure to glyphosate is consistent with the presence of functional GOX and PhnO enzymes and the absence of detectable [^14C]-AMPA.

[2] = test system: female gametes; conditions: under optimal conditions; cited from earlier work
[3] = test system: recombinant cotton line 3753 (EPSPS/GOX); experiment: [^14C]-glyphosate metabolism in cotton line 3753; format: in vivo, cotton (Gossypium hirsutum L.); conditions: EPSPS/GOX Plants
Procedure: The metabolism of [^14C]-glyphosate in recombinant cotton lines 4268 (GOX/PhnO) and 3753 (EPSPS/GOX) was also studied. Plants in this study were treated as indicated above for cotton line 4416, by applying droplets of ROUNDUP ULTRA fortified with [^14C]-glyphosate to a single leaf on each plant at the three to four leaf stage. Treated leaves were harvested and rinsed with water, then ground and extracted, and extracts were analyzed by HPLC as described above for the presence of [^14C]-glyphosate, [^14C]-AMPA, and N-acetyl-[^14C]-AMPA. New growth, including the meristem and new leaves that emerged following application were also extracted and analyzed.

[4] = biological target: PhnO enzyme (Escherichia coli, UniProt P16691, P2A)
PhnO enzyme, sequence (P16691 whole entry P2A): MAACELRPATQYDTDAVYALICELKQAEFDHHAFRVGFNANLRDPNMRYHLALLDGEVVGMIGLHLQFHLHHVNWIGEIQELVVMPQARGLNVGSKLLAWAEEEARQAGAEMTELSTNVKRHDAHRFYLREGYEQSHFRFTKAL
Procedure: The apparent Km (Km) and Vmax (Vmax) of PhnO enzyme were determined for the substrates aminomethlyphosphonate and acetyl-CoA. Determination of the PhnO Km and Vmax were made by endpoint kinetic analyses, determining the enzyme velocity in consuming each substrate at varying substrate concentrations, and plotting the inverse of the enzyme velocity versus the inverse of the substrate concentration to produce a Lineweaver-Burk plot of enzyme kinetics. The conversion of [^14C]-AMPA to N-acetyl-[^14C]-AMPA was monitored as in example 2, using enzyme in a desalted crude lysate of E. coli expressing phnO from pMON15032, produced as in example 4. […] Enzyme reactions were incubated at 37° C. for 5 minutes and quenched with 1 volume of 100 mM sodium acetate (NaOAc), pH 4.4, in ethanol. Samples were analyzed by HPLC to determine the amount of [^14C]-AMPA converted to N-acetyl-[^14C]-AMPA.

[5] = test system: Tobacco callus; experiment: Tobacco callus growth on plates with AMPA or N-acetyl AMPA; format: cell-based, Nicotiana tabacum cv. "Samsun"; conditions: plates with 0.1 mM or 0.4 mM, up to three weeks
Procedure: Tobacco callus was generated from leaf pieces of wild type Nicotiana tabacum cv. “Samsun” tobacco on MS104 plates (MS salts 4.3 g/l, sucrose 30 g/l, B5 vitamins 500X 2 ml/l, NAA 0.1 mg/l, and Bacto Agar […]). Callus tissue was applied to plates with or without AMPA and with or without N-acetyl AMPA. Plates contained AMPA or N-acetyl AMPA at concentrations of 0.1 mM or 0.4 mM. Plates were incubated for up to three weeks and monitored periodically.

[6] = test system: wild type Coker 312 plants; experiment: AMPA spray on cotton plants; format: in vivo, cotton (Gossypium hirsutum L.)
Procedure: Previously identified plants transformed with a double gene glyphosate resistance cassette comprised of EPSPS and GOX encoding genes were determined to be resistant to glyphosate when applied at 48 ounces per acre through the 6-7 leaf stage, however severe bleaching of the leaves was observed. This phytotoxic effect was presumed to be due to the formation of AMPA as a result of GOX mediated glyphosate degradation. To test this, AMPA was sprayed at three different rates onto wild type Coker 312 plants. […] To test this, cotton plants expressing GOX or GOX plus EPSPS alone or in combination with PhnO expression were treated with [^14C]-glyphosate, and the metabolism of the isotope labeled glyphosate was monitored in leaf tissue seven days after application.

[7] = test system: E. coli JM101; experiment: Cell growth in MOPS medium with AMPA; format: cell-based; parameters: key: — indicates no measurable growth; conditions: 0.2 mM AMPA, growth period 54 hrs
Procedure: The phn operon is induced when E. coli is grown in media lacking or limited in a phosphate source. Therefore, E. coli GB993 was compared to the parental JM101 strain when grown in MOPS minimal media. GB993 and its mpu− parent strain, JM101, were grown under identical conditions, varying only the amount of phosphate available or supplemented with AMPA. 50 ml cultures were grown in duplicate in 250 ml sidearm-Erlenmeyer flasks with continuous shaking at 37° C. in MOPS medium (5 mls of 10×MOPS salts, 0.5 ml 1 mg/ml thiamin, 0.5 ml 20% glucose, to 50 mls with dH2O) containing 0.1 or 5 mM phosphate, or 0.1 mM phosphate supplemented with approximately 0.2 mM AMPA, pH 7.0. The cultures were generally grown to about 220 Klett units and the cells were pelleted by centrifugation, resuspended in 1.5 mls of 10 mM Tris/1 mM DTT, and lysed with two passes through a French press at […]. Lysates were centrifuged to remove debris and the supernatant passed through a G-50 column equilibrated with 50 mM Tris pH 7.0.

[8] = AMPA substrate 200 nm (nanomoles)

For N-phosphono-methyl-glycine [Glyphosate], the “[^14C] labeled metabolites in sink leaf extract” value (from here on “[^14C] labeled metabolites”) ([1]; line 33476 (GOX)) was “only [^14C]-AMPA”, the “[^14C] labeled metabolites” value ([1]; line 36779) was “Only N-acetyl-[^14C]-AMPA” and the “[^14C] labeled metabolites” value ([1]; line 37235) was “non-metabolized [^14C]-glyphosate as well as a trace but measurable amount of [^14C]-AMPA”. For the same compound, the “female gametes left capable of fertilization” value [2] was 40-60%, the “% [^14C] metabolite in New Growth Extract: N-Acetyl-AMPA” value [3] was 1.9% and the “% [^14C] metabolite in Glyphosate Treated Leaf Extract: AMPA” value ([3]; listed as [^14C]-Glyphosate) was 6-27%. For the same compound, the “% [^14C] metabolite in Glyphosate Treated Leaf Extract: Glyphosate” value ([3]; listed as [^14C]-Glyphosate) was 59.8% and 92.7% and 81.2% and 86.2%, the “% [^14C] metabolite in Glyphosate Treated Leaf Extract: N-Acetyl-AMPA” value ([3]; listed as [^14C]-Glyphosate) was 0.8% and 1.0% and the “% [^14C] metabolite in New Growth Extract: AMPA” value ([3]; listed as [^14C]-Glyphosate) was 72-86%. The “% [^14C] metabolite in New Growth Extract: Glyphosate” value ([3]; listed as [^14C]-Glyphosate) was 93%.
In the case of NCP(=O)(O)O [AMPA, N-aminomethyl phosphonic acid], the “% Turnover” value [4, 8] is reported as 39.5%, the Velocity [4, 8] is reported as 79 nm per minute per mg of protei and the “% Turnover” value ([4]; AMPA substrate 400 nm) is reported as 35.1%. For the same compound, the Velocity ([4]; AMPA substrate 400 nm) was 140 nm per minute per mg of protei, the “% Turnover” value ([4]; AMPA substrate 800 nm) was 32.9% and the Velocity ([4]; AMPA substrate 800 nm) was 263 nm per minute per mg of protei. The “% Turnover” value ([4]; AMPA substrate 1200 nm) was 26.8%, the Velocity ([4]; AMPA substrate 1200 nm) was 322 nm per minute per mg of protei and the “% Turnover” value ([4]; AMPA substrate 1600 nm) was 26.2%. For the same compound, the Velocity ([4]; AMPA substrate 1600 nm) was 426 nm per minute per mg of protei, the “% Turnover” value ([4]; AMPA substrate 2000 nm) was 22.1% and the Velocity ([4]; AMPA substrate 2000 nm) was 442 nm per minute per mg of protei. The “% Turnover” value ([4]; AMPA substrate 2400 nm) was 19.2%, the Velocity ([4]; AMPA substrate 2400 nm) was 461 nm per minute per mg of protei and the “% Turnover” value ([4]; AMPA substrate 2800 nm) was 17.6%. The Velocity ([4]; AMPA substrate 2800 nm) was 493 nm per minute per mg of protei, the “% Turnover” value ([4]; AMPA substrate 3200 nm) was 17.3% and the Velocity ([4]; AMPA substrate 3200 nm) was 554 nm per minute per mg of protei. For the same compound, the “% Turnover” value ([4]; AMPA substrate 3600 nm) was 14.5%, the Velocity ([4]; AMPA substrate 3600 nm) was 522 nm per minute per mg of protei and the “% Turnover” value ([4]; AMPA substrate 4000 nm) was 13.6%. The Velocity ([4]; AMPA substrate 4000 nm) was 544 nm per minute per mg of protei, the “% Turnover” value ([4]; AMPA substrate 6000 nm) was 12.7% and the Velocity ([4]; AMPA substrate 6000 nm) was 762 nm per minute per mg of protei. The “% Turnover” value ([4]; AMPA substrate 7600 nm) was 10%, the Velocity ([4]; AMPA substrate 7600 nm) was 760 nm per minute per mg of protei and the “apparent Vmax” value ([4]; AMPA substrate, Lineweaver-Burk plot) was “about 824 U/mg protein”. The Km ([4]; read-out: apparent Km of PhnO for AMPA as a substrate, Lineweaver-Burk plot of Table 8 data) was about 9 mM, the “growth of tobacco callus tissue” value [5] was “severely inhibited” and the “phytotoxic effect on plants” value ([6]; 64 ounces per acre, eight days post-application) was “Leaf chlorosis and stunted growth”. The “phytotoxic effect on plants” value ([6]; 640 ounces per acre, four days post-application) was “Leaf chlorosis and stunted growth” and the “Harvest Density” value [7] was “—”.
